Results on two molecules are retold here after ChEMBL document CHEMBL1141934, “Comparison of ligand-based and structure-based 3D-QSAR approaches: a case study on (aryl-)bridged 2-aminobenzonitriles inhibiting HIV-1 reverse transcriptase” (J Med Chem, 2005).

In this assay the target is Human immunodeficiency virus type 1 reverse transcriptase (Human immunodeficiency virus 1, UniProt Q72547). In words: Inhibitory concentration against Reverse transcriptase.

As a reminder, the IC50 is the concentration at which inhibition is half-maximal. `N#Cc1c(N)cccc1S(=O)(=O)c1ccc2ccccc2c1` had an IC50 of 0.0295 µM. In other words, the double-digit nanomolar range.
As for `N#Cc1ccccc1[S+]([O-])c1cccc(N)c1C#N` (configuration not stated), the figure is 9.77 µM.
